Assay results published in PubChem BioAssay (NCI).
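Method: 48-hour compound exposure of cells in 96-well plates, five concentrations, linear interpolation of endpoints. Definition used: TGI = concentration required for complete inhibition of growth.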

Legend:
Assay in all cases: NCI tumour cell line growth inhibition, 48 h
[1] = test system: UACC-62 melanoma
[2] = test system: T-47D breast
[3] = test system: 786-0 renal
[4] = test system: DMS 114 small cell lung
[5] = test system: KM20L2 colon
[6] = test system: M19-MEL melanoma
[7] = test system: SNB-78 CNS
[8] = test system: DLD-1 colon
[9] = test system: LXFL 529 NSCLC

Row | Compound | TGI [1] [µM] | TGI [2] [µM] | TGI [3] [µM] | further results
1 | NCCCC(N)C(=O)O (centres undefined) | > 100 | > 100 | > 100 | 
2 | COC(c1ccc(C(C)(C)C)cc1)(c1ccc(C(C)(C)C)cc1)c1cc(C(O)(c2cc(C(OC)(c3ccc(C(C)(C)C)cc3)c3ccc(C(C)(C)C)cc3)c(C)cc2C)c2cc(C(OC)(c3ccc(C(C)(C)C)cc3)c3ccc(C(C)(C)C)cc3)c(C)cc2C)c(C)cc1C | > 100 | > 100 |  | 
3 | CN1C(=O)CN(NC(=O)C2=C(O)c3ccc(Br)cc3S(=O)(=O)N2)C1=S | > 100 | > 100 | > 100 | 
4 | CCOC(=O)c1c(SCCN2CCCC2)n(-c2ccccc2)c(=S)n(-c2ccccc2)c1=O | 7.29 | 9.41 | 2.89 | 
5 | O=C(O)Cc1ccc2nc(COC(=O)c3ccccc3)sc2c1 | > 100 | > 100 | > 100 | 
6 | O=C(OCc1ccccc1)OOC(=O)OCc1ccccc1 | > 100 |  |  | TGI [4]: > 100 µM; TGI [5]: > 100 µM; TGI [6]: > 100 µM; TGI [7]: > 100 µM; TGI [8]: > 100 µM; TGI [9]: > 100 µM
7 | C[C@@H]1C[C@H](O)[C@]2(O)O[C@@H]3C[C@@]4(C=O)[C@@H](CC=C5[C@@H]4CC[C@]4(C)[C@@H](C6=CC(=O)OC6)CC[C@]54O)C[C@H]3O[C@@H]2O1 |  | 0.325 |  | 
8 | O=C1C(C=NCCc2c[nH]c3ccccc23)C(C(F)(F)F)=NN1c1nc2ccccc2s1 (centres undefined) | 43.6 | 25.5 | > 100 | 
9 | COc1ccc2c(c1)C(=O)c1ccccc1C2 | > 100 | 67.8 | > 100 | 
10 | CCN(CC)CCCn1c(=O)c2cccnc2n2c3c(=O)n(C)c(=O)n(C)c3nc12 | > 100 | > 100 | > 100 | 
11 | CC(C)c1c(P(=O)(c2ccccc2)c2ccccc2)n(C)c2ccccc12 |  | > 100 | > 100 | 
12 | CCn1c(=O)c2c3cc(O)ccc3oc2c2ccc(O)cc21 | > 100 | 36.5 | > 100 | 
13 | O=C1C(Br)=Cc2c(Cl)sc(Cl)c21 | 27.2 | 7.58 | 5.09 | 
14 | N#Cc1c(OCCF)c2ccccc2n2c1nc1ccccc12 | > 100 | > 100 |  | 
15 | CO/N=C1/c2sccc2[C@H](NC(=O)CNC(=O)OC(C)(C)C)[C@@H]1O | > 100 | > 100 |  | 
16 | O=C(O[C@H](/C=C/c1ccccc1)P1(=O)N(Cc2ccccc2)[C@@H]2CCCC[C@H]2N1Cc1ccccc1)c1ccccc1 | 40 | 3.66 | 42 | 
17 | CN(O)C(=O)Cc1ccc(OCc2cccc(Cl)c2)cc1 | > 100 | > 100 | > 100 | 
18 | CCN(CCCN(CC)C(=O)N[C@@H](Cc1ccccc1)C(=O)NC)C(=O)N[C@@H](Cc1ccccc1)C(=O)NC | > 100 | > 100 | > 100 | 
19 | CC1=CC=CC(C)(C)CC1(O[Si](C)(C)C)C(F)(F)F (centres undefined) | > 100 | > 100 | > 100 | 
20 | CC1CC(C#N)=C2NCCCCN2C1=O (centres undefined) | > 100 | > 100 | > 100 | 
21 | N#CSCc1cccc(Nc2cc(=O)[nH]c(=O)[nH]2)c1 | > 100 | > 100 | > 100 | 
22 | C/C(=N/NC(=S)Nc1cccc(C)c1)c1ccccn1 | 2.92 | 12.4 | 4.26 | 
